pEC50, pIC50: −log10 of the molar value. ≈ marks a conversion by molar mass, not a printed value.
Tests used:
[1] = system: Mycobacterium tuberculosis; assay: Antitubercular activity against Mycobacterium tuberculosis H37Rv; assay type: functional
[2] = Antiproliferative activity against human MDA435/LCC6 cells; assay type: functional, cell-based; settings: MDA-435/LCC6
[3] = Inhibition of bovine brain tubulin polymerization after 10 mins by UV-vis spectrophotometric analysis; set-up: species or system Bos taurus
Acetylcholinesterase [4] = target: Acetylcholinesterase (Electrophorus electricus, UniProt O42275); assay: Inhibition of electric eel AChE using acetylthiocholine iodide as substrate measured for 120 secs by spectrophotometric analysis
Acetylcholinesterase (Electrophorus electricus, UniProt O42275), sequence (O42275 whole entry): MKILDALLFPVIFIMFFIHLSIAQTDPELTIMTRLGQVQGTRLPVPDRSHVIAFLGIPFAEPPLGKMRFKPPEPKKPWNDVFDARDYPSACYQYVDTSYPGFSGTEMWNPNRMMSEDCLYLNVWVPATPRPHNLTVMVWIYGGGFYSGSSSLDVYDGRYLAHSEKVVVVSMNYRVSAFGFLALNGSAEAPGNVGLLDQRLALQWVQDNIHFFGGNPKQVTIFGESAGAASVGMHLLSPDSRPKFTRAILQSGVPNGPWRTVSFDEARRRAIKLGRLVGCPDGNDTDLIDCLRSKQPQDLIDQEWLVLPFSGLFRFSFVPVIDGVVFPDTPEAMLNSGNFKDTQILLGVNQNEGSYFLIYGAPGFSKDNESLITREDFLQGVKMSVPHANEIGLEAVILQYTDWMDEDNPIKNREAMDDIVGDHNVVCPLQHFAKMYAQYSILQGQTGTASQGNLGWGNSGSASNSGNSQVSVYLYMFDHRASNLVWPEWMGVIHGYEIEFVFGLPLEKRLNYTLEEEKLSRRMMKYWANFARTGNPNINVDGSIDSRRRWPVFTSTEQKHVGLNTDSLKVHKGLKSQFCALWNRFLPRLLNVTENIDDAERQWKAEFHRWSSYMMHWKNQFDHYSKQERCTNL

Estrogen receptor [5] = target: T1, Estrogen receptor (Homo sapiens, UniProt P03372); assay: Inhibition of human estrogen receptor alpha expressed in human MDA-MB-231 cells assessed as reduction in estrogen-induced transcriptional activation after 6 hrs by beta galactosidase reporter gene assay; assay type: cell-based
T1 sequence (P03372 whole entry): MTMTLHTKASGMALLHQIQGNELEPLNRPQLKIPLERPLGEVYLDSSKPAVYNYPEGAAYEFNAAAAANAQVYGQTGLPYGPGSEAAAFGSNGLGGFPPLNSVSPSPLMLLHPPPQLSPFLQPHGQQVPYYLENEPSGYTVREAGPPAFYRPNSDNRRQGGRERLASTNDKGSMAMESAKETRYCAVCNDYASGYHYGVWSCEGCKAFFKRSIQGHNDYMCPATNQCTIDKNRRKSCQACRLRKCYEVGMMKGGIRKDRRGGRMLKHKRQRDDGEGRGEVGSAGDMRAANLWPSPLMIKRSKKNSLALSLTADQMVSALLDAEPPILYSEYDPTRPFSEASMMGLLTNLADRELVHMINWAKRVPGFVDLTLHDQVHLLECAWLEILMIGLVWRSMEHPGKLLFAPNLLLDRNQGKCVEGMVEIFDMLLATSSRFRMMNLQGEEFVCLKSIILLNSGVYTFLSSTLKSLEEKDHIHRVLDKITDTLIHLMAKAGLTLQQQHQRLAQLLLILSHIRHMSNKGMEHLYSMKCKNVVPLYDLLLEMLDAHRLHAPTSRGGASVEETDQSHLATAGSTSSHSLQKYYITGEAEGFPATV

Estrogen receptor [6] = target: T1, Estrogen receptor; assay: Inhibition of human estrogen receptor alpha expressed in human LNCAP cells assessed as reduction in estrogen-induced transcriptional activation after 6 hrs by beta galactosidase reporter gene assay; assay type: cell-based
[7] = target: T2, Estrogen receptor (Homo sapiens) (UniProt P03372); assay: Displacement of [3H] estradiol from human estrogen receptor alpha after 18 hrs by scintillation counting analysis
T2 sequence (whole entry): T1 sequence (P03372 whole entry)

Estrogen receptor [8] = target: T1, Estrogen receptor; assay: Inhibition of human estrogen receptor alpha expressed in human MCF7 cells assessed as reduction in estrogen-induced transcriptional activation after 6 hrs by beta galactosidase reporter gene assay; assay type: cell-based
Estrogen receptor [9] = target: T1, Estrogen receptor; assay: Inhibition of human estrogen receptor alpha expressed in HEK293 cells assessed as reduction in estrogen-induced transcriptional activation after 6 hrs by beta galactosidase reporter gene assay; assay type: cell-based
Acetylcholinesterase [10] = target: T3, Acetylcholinesterase (Bos taurus, UniProt P23795); assay: Inhibition of bovine erythrocyte AchE using acetylthiocholine iodide as substrate after 15 mins by spectrophotometric analysis
T3 sequence (P23795 whole entry): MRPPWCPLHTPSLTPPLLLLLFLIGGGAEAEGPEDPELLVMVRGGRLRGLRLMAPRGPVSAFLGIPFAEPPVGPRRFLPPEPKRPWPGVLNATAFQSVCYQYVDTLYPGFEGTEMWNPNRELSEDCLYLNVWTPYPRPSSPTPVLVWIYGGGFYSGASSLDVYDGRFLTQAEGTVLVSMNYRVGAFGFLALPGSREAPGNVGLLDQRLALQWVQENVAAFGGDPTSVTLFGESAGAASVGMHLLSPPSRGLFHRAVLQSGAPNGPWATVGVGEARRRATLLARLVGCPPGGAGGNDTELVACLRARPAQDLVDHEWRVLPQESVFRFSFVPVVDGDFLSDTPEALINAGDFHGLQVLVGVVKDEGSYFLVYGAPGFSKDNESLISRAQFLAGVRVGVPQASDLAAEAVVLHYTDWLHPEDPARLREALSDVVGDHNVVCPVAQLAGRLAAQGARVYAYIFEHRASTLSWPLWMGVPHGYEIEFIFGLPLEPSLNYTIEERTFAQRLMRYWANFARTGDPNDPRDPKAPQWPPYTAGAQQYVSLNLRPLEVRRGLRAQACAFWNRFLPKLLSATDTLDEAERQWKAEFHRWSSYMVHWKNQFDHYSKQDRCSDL

A549 = assay: Cytotoxicity against human A549 cells assessed as reduction in cell viability; assay type: functional; settings: read-out: ED50 (the source's name)
UCLA P-3 = assay: Antiproliferative activity against human UCLA-P3 cells; assay type: functional, cell-based
MOLT-4 = assay: Antiproliferative activity against human MOLT4 cells; assay type: functional, cell-based
SK-BR-3 = assay: Growth inhibition of human SKBR3 cells; assay type: functional, cell-based
[11] = target: Receptor tyrosine-protein kinase erbB-2 (Homo sapiens, UniProt P04626); assay: Inhibition of HER2 in human MCF-7 cells after 24 hrs by immunoblotting analysis; assay type: cell-based
Receptor tyrosine-protein kinase erbB-2, sequence (P04626 whole entry): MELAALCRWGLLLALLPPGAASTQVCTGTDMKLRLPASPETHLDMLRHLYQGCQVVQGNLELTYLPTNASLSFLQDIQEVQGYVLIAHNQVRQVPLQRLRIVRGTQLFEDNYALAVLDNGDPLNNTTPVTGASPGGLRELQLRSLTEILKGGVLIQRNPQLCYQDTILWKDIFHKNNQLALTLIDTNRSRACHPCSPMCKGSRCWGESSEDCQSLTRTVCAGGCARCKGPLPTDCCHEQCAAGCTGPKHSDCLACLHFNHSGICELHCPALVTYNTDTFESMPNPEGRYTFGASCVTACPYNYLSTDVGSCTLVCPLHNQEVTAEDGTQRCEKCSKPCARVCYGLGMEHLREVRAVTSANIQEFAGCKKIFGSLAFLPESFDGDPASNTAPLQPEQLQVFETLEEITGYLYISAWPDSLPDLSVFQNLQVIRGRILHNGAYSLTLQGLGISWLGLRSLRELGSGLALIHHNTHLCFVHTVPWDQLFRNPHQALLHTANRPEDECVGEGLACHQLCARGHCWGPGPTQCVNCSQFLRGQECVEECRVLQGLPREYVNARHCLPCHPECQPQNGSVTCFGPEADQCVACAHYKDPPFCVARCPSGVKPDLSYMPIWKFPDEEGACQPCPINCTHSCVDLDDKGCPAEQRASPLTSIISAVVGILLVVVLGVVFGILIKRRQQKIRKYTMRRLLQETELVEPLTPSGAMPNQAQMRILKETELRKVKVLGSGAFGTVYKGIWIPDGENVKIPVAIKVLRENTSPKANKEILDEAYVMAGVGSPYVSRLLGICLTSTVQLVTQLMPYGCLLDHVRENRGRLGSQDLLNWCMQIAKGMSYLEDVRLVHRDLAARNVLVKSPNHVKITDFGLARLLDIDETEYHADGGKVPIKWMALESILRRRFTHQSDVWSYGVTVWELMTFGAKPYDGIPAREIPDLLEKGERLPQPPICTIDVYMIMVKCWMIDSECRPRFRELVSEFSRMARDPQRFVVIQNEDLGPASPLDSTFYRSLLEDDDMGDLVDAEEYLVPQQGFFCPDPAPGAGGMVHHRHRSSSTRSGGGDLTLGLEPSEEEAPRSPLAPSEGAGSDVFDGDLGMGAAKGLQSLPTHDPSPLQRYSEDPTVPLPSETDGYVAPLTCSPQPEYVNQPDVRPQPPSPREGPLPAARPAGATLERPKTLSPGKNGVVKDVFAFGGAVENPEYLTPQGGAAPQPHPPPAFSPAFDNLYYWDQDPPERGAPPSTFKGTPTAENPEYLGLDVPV

In the case of `C[C@@]12CC[C@@H]3[C@@](CC[C@H]4[C@@]3(C)CCC[C@@]4(C)C(=O)O)(C/C1=N\NC(=O)c1cccnc1)C2`, the MIC [1] was 10 to 20 µg/mL (≈ 22.9 to 45.7 µM).
Work on `C[C@@]12CC[C@@H]3[C@@](CC[C@H]4[C@@]3(C)CCC[C@@]4(C)C(=O)O)(C/C1=N\NC(=O)c1ccncc1)C2` yielded an MIC [1] of 10 to 20 µg/mL (≈ 22.9 to 45.7 µM).
In the case of `COC(=O)[C@]1(C)CCC[C@@]2(C)[C@@H]3CC[C@@]4(C)C[C@]3(CC[C@@H]21)C/C4=N\NC(=O)c1ccncc1`, the MIC [1] was 10 to 20 µg/mL (≈ 22.1 to 44.3 µM).
In the case of `CC(=O)O[C@H]1C(=O)[C@@]2(C)[C@H]([C@@H]3OC(=O)c4ccccc4OC/C=C/CC[C@H](NC(=O)OC(C)(C)C)[C@@H](O)C(=O)O[C@@H]4C[C@]3(O)C(C)(C)C1=C4C)[C@]1(OC(C)=O)CO[C@@H]1C[C@@H]2O`, the pIC50 [2] was 6.41.
With `COc1cc2c(ccc1=O)[C@H]1CC[C@]3(C)[C@@H](O)CC[C@H]3[C@@H]1CC2` the pIC50 [3] was 5.68.
`COC(=O)[C@]1(C)CCC[C@@]2(C)[C@@H]3CC[C@@]4(C)C[C@]3(CC[C@@H]21)C/C4=N\NC(=O)c1cccnc1` gave an MIC [1] of 10 to 20 µg/mL (≈ 22.1 to 44.3 µM).
With `COc1ccc2c3c1O[C@H]1C[C@@H](O)CC[C@@]31CCN(CCCCCCN1CC[C@@]34C=C[C@H](O)C[C@@H]3Oc3c(OC)ccc(c34)C1)C2` the pIC50 (Acetylcholinesterase [4]) was 6.35.
`COc1ccc2c3c1O[C@H]1C[C@@H](O)CC[C@@]31CCN(CCCCCCCCCCCC[N+]1=Cc3ccc(OC)c4c3[C@@]3(C=C[C@H](O)C[C@@H]3O4)CC1)C2` gave a pIC50 (Acetylcholinesterase [4]) of 7.92.
For `C[C@]12CC[C@@H]3c4ccc(O)cc4CC[C@H]3[C@@H]1CC[C@@]2(O)C#CC(=O)OCC1CC#C/C=C\C#CCC1` (stereo not given in full), the pIC50 (Estrogen receptor [5]) was 4.32, the pIC50 (Estrogen receptor [6]) was 4.48 and the Activity [7] was 0.51 µM. For the same molecule, the pIC50 (Estrogen receptor [8]) was 4.51 and the pIC50 (Estrogen receptor [9]) was 5.00.
For `CCC1CCC2CC(Cc3nc4ccccc4c(N)c32)C1` (stereo not given), the pIC50 (Acetylcholinesterase [10]) was 8.94.
In the case of `COc1ccc2c(c1)CC[C@@H]1[C@@H]2CC[C@]2(C)CO[C@@]3(C[C@@H](O)C(CO)=CO3)C[C@@H]12`, the pEC50 (A549) was 4.64.
Work on `CCN[C@H]1CO[C@@H](O[C@H]2[C@H](OCOC[C@@]34C#CCCC#C[C@@H]5N(C(=O)OCCS(=O)(=O)c6ccccc6)c6ccccc6[C@]36O[C@@]56CCC4)O[C@H](C)[C@@H](NO[C@H]3C[C@H](O)[C@H](SC(=O)c4c(C)c(I)c(O[C@@H]5O[C@@H](C)[C@H](O)[C@@H](OC)[C@H]5O)c(OC)c4OC)[C@@H](C)O3)[C@@H]2O)C[C@@H]1OC` yielded a pIC50 (UCLA P-3) of 10.00 and a pIC50 (MOLT-4) of 6.80.
In the case of `CO[C@H]1/C=C\C=C(/C)C(=O)NC2=CC(=O)C(NCCCCNC3=C4C[C@@H](C)C[C@H](OC)[C@H](O)[C@@H](C)/C=C(\C)[C@H](OC(N)=O)[C@@H](OC)/C=C\C=C(/C)C(=O)NC(=CC3=O)C4=O)=C(C[C@@H](C)C[C@H](OC)[C@H](O)[C@@H](C)/C=C(\C)[C@@H]1OC(N)=O)C2=O`, the pIC50 (SK-BR-3) was 7.70 and the pIC50 [11] was 7.22.
With `C[C@@]12CC[C@@H]3[C@@](CC[C@H]4[C@@]3(C)CCC[C@@]4(C)C(=O)O)(C/C1=N\NC(=O)c1ccccn1)C2` the MIC [1] was 10 to 20 µg/mL (≈ 22.9 to 45.7 µM).

Source: ChEMBL document CHEMBL4229384, “Success stories of natural product-based hybrid molecules for multi-factorial diseases” (Eur J Med Chem, 2018)
